Values joined by “and” are separate entries in the source; they are usually repeats but may differ in a detail not shown here. Equal values may be shown once.
Key:
[1] = Storage stability of FP-CIT linear precursor in storage solvent (purity over 12 months by HPLC analysis); type: physicochemical
Experimental: HPLC analysis was carried out using the same experimental method and analytic conditions as in Example 1-1, except that the storage temperature was -20°C. […] The purity of the FP-CIT linear precursor over time is summarized in FIG. 4 and the following Table 3.
HPLC analysis was carried out using the same experimental method and analytic conditions as in Example 1-1, except that the storage concentration was 8 mg/mL. […] The purity of the FP-CIT linear precursor over time is summarized in FIG. 5 and the following Table 4.
HPLC analysis was carried out using the same experimental method and analytic conditions as in Example 3-1, except that the storage temperature was -20°C. […] The purity of the FP-CIT linear precursor over time is summarized in FIG. 5 and the following Table 4.

[2] = cited from earlier work

COC(=O)C1C(c2ccc(I)cc2)CC2CCC1N2CCCOS(C)(=O)=O (stereo not drawn) [FP-CIT linear precursor]
purity of the FP-CIT linear precursor ([1]; CHCl3, 1 mg/mL, -20°C, 0 months (start of storage assumed 100%)): 100.0% | purity of the FP-CIT linear precursor ([1]; CHCl3, 1 mg/mL, -20°C, 3 months): 79.4% | purity of the FP-CIT linear precursor ([1]; CHCl3, 1 mg/mL, -20°C, 5 months): 65% and 65.1% | purity of the FP-CIT linear precursor ([1]; CHCl3, 1 mg/mL, -20°C, 7 months): 57.1% | purity of the FP-CIT linear precursor ([1]; CHCl3, 1 mg/mL, -20°C, 9 months): 53.2% | purity of the FP-CIT linear precursor ([1]; CHCl3, 1 mg/mL, room temperature, 0 months (start of storage assumed 100%)): 100.0% | purity of the FP-CIT linear precursor ([1]; CHCl3, 1 mg/mL, room temperature, 3 months): 60.4% | purity of the FP-CIT linear precursor ([1]; CHCl3, 1 mg/mL, room temperature, 7 months): 2.2% | purity of the FP-CIT linear precursor ([1]; CHCl3, 1 mg/mL, room temperature, 9 months): 0.7% | purity of the FP-CIT linear precursor ([1]; DCM, 1 mg/mL, -20°C, 0 months (start of storage assumed 100%)): 100.0% | purity of the FP-CIT linear precursor ([1]; DCM, 1 mg/mL, -20°C, 3 months): 93.5% | purity of the FP-CIT linear precursor ([1]; DCM, 1 mg/mL, -20°C, 7 months): 73.2% | purity of the FP-CIT linear precursor ([1]; DCM, 1 mg/mL, -20°C, 9 months): 71.3% | purity of the FP-CIT linear precursor ([1]; DCM, 1 mg/mL, room temperature, 0 months (start of storage assumed 100%)): 100.0% | purity of the FP-CIT linear precursor ([1]; DCM, 1 mg/mL, room temperature, 3 months): 47.0% | purity of the FP-CIT linear precursor ([1]; DCM, 1 mg/mL, room temperature, 5 months): 34% and 34.2% | purity of the FP-CIT linear precursor ([1]; DCM, 1 mg/mL, room temperature, 7 months): 30.9% | purity of the FP-CIT linear precursor ([1]; DCM, 1 mg/mL, room temperature, 9 months): 13.1% | purity of the FP-CIT linear precursor ([1]; EA, 1 mg/mL, -20°C, 0 months (start of storage assumed 100%)): 100.0% | purity of the FP-CIT linear precursor ([1]; EA, 1 mg/mL, -20°C, 1 month): 97.5% | purity of the FP-CIT linear precursor ([1]; EA, 1 mg/mL, -20°C, 3 months): 97.4% | purity of the FP-CIT linear precursor ([1]; EA, 1 mg/mL, -20°C, 5 months): 96.7% | purity of the FP-CIT linear precursor ([1]; EA, 1 mg/mL, -20°C, 7 months): 96.4% | purity of the FP-CIT linear precursor ([1]; EA, 1 mg/mL, -20°C, 9 months): 96.4% | purity of the FP-CIT linear precursor ([1]; EA, 1 mg/mL, room temperature, 0 months (start of storage assumed 100%)): 100.0% | purity of the FP-CIT linear precursor ([1]; EA, 1 mg/mL, room temperature, 3 months): 91.2% | purity of the FP-CIT linear precursor ([1]; EA, 1 mg/mL, room temperature, 7 months): 39.8% | purity of the FP-CIT linear precursor ([1]; EA, 1 mg/mL, room temperature, 9 months): 28.4% | purity of the FP-CIT linear precursor ([1]; EA, 8 mg/mL, -20°C, 0 months (start of storage assumed 100%)): 100.0% | purity of the FP-CIT linear precursor ([1]; EA, 8 mg/mL, -20°C, 1 month): 99.3% | purity of the FP-CIT linear precursor ([1]; EA, 8 mg/mL, -20°C, 3 months): 99.0% | purity of the FP-CIT linear precursor ([1]; EA, 8 mg/mL, -20°C, 7 months): 96.7% | purity of the FP-CIT linear precursor ([1]; EA, 8 mg/mL, -20°C, 9 months): 96.4% | purity of the FP-CIT linear precursor ([1]; EA, 8 mg/mL, room temperature, 0 months (start of storage assumed 100%)): 100.0% | purity of the FP-CIT linear precursor ([1]; EA, 8 mg/mL, room temperature, 3 months): 64.3% | purity of the FP-CIT linear precursor ([1]; EA, 8 mg/mL, room temperature, 5 months): 43% and 43.3% | purity of the FP-CIT linear precursor ([1]; EA, 8 mg/mL, room temperature, 7 months): 16.2% | purity of the FP-CIT linear precursor ([1]; EA, 8 mg/mL, room temperature, 9 months): 13.5% | purity of the FP-CIT linear precursor ([1]; THF, 1 mg/mL, -20°C, 0 months (start of storage assumed 100%)): 100.0% | purity of the FP-CIT linear precursor ([1]; THF, 1 mg/mL, -20°C, 1 month): 98.0% | purity of the FP-CIT linear precursor ([1]; THF, 1 mg/mL, -20°C, 3 months): 96.7% | purity of the FP-CIT linear precursor ([1]; THF, 1 mg/mL, -20°C, 7 months): 95.1% | purity of the FP-CIT linear precursor ([1]; THF, 1 mg/mL, -20°C, 9 months): 94.7% | purity of the FP-CIT linear precursor ([1]; THF, 1 mg/mL, room temperature, 0 months (start of storage assumed 100%)): 100.0% | purity of the FP-CIT linear precursor ([1]; THF, 1 mg/mL, room temperature, 3 months): 89.9% | purity of the FP-CIT linear precursor ([1]; THF, 1 mg/mL, room temperature, 7 months): 56.6% | purity of the FP-CIT linear precursor ([1]; THF, 1 mg/mL, room temperature, 9 months): 25.6% | purity of the FP-CIT linear precursor ([1]; THF, 8 mg/mL, -20°C, 0 months (start of storage assumed 100%)): 100.0% | purity of the FP-CIT linear precursor ([1]; THF, 8 mg/mL, -20°C, 1 month): 98.8% | purity of the FP-CIT linear precursor ([1]; THF, 8 mg/mL, -20°C, 3 months): 97.5% | purity of the FP-CIT linear precursor ([1]; THF, 8 mg/mL, -20°C, 7 months): 94.7% | purity of the FP-CIT linear precursor ([1]; THF, 8 mg/mL, -20°C, 9 months): 94.4% | purity of the FP-CIT linear precursor ([1]; THF, 8 mg/mL, -20°C, 12 months): 89% and 89.7% | purity of the FP-CIT linear precursor ([1]; THF, 8 mg/mL, room temperature, 0 months (start of storage assumed 100%)): 100.0% | purity of the FP-CIT linear precursor ([1]; THF, 8 mg/mL, room temperature, 3 months): 72.9% | purity of the FP-CIT linear precursor ([1]; THF, 8 mg/mL, room temperature, 5 months): 30% and 30.4% | purity of the FP-CIT linear precursor ([1]; THF, 8 mg/mL, room temperature, 7 months): 5.5% | purity of the FP-CIT linear precursor ([1]; THF, 8 mg/mL, room temperature, 9 months): 5.5%

ClCCl [Dichloromethane (DCM), Dichloromethane]
Water solubility (g/100 mL, 20°C) [2]: 1.6 g/100 mL

CCOC(C)=O [Ethyl acetate (EA), Ethyl acetate]
Water solubility (g/100 mL, 20°C) [2]: 8.3 g/100 mL

Reference: patent EP4786470A1, “METHOD FOR S[…]-CIT LINEAR PRECURSOR WITH HIGH PURITY, AND METHOD FOR PREPARING [18F]FP-CIT BY USING SAME” (The Asan Foundation, priority 2023, dated 2025)
